Legend:
Assay type in all cases: functional
[1] = test system: Pythium; experiment: Fungitoxic activity against Pythium sp. assessed as mycelial growth inhibition at 10 ppm after 3 days; conditions: 72 h, read-out: GI
[2] = test system: Athelia rolfsii; experiment: Fungitoxic activity against Athelia rolfsii assessed as mycelial growth inhibition at 100 ppm after 3 days; conditions: Agroathelia rolfsii, 72 h; read-out: GI
[3] = test system: Pythium; experiment: Fungitoxic activity against Pythium sp. assessed as mycelial growth inhibition at 100 ppm after 3 days; conditions: 72 h, read-out: GI
[4] = test system: Athelia rolfsii; experiment: Fungitoxic activity against Athelia rolfsii assessed as mycelial growth inhibition at 10 ppm after 3 days; conditions: Agroathelia rolfsii, 72 h; read-out: GI

Compound	inhibition of growth at 10 ppm [1] [%]	inhibition of growth at 100 ppm [2] [%]	inhibition of growth at 100 ppm [3] [%]	inhibition of growth at 10 ppm [4] [%]
COC(=O)[C@H](CC(C)C)NC(=O)/C=C/c1ccc(C(C)C)cc1	6	35	60	
CC[C@H](C)[C@H](NC(=O)/C=C/c1ccc(Cl)cc1)C(=O)OC	0	65	51	20
CCOC(=O)[C@H](CC(C)C)NC(=O)/C=C/c1ccccc1		40	16	
CCCOC(=O)[C@H](CC(C)C)NC(=O)/C=C/c1ccc(Cl)cc1Cl		33	38	
COC(=O)[C@H](C)NC(=O)/C=C/c1ccc(C(C)C)cc1		67	52	
CCCOC(=O)CNC(=O)/C=C/c1ccc(Cl)cc1		56	48	35
CC(C)OC(=O)CNC(=O)/C=C/c1ccc(Cl)cc1Cl	9	94	70	38
CC(C)OP(=O)(OC(C)C)SCc1ccccc1 [IPROBENFOS]	42	100	89	69
CCCOC(=O)CNC(=O)/C=C/c1ccccc1 [PROPYL 2-CINNAMAMIDOACETATE]		53	47	26
CCOC(=O)[C@H](CC(C)C)NC(=O)/C=C/c1ccc(Cl)cc1Cl		34	30	
CC[C@H](C)[C@H](NC(=O)/C=C/c1ccccc1)C(=O)OC		33	39	
CC(C)C[C@H](NC(=O)/C=C/c1ccc(C(C)C)cc1)C(=O)OC(C)C	25	56	53	35
CCOC(=O)[C@H](C)NC(=O)/C=C/c1ccccc1		14	21	
CCOC(=O)[C@H](C)NC(=O)/C=C/c1ccc(Cl)cc1Cl	0	52	55	12
COC(=O)[C@H](CC(C)C)NC(=O)/C=C/c1ccccc1		30	23	
CCOC(=O)[C@H](Cc1ccccc1)NC(=O)/C=C/c1ccc(Cl)cc1Cl		35	18	
COC(=O)[C@H](Cc1ccccc1)NC(=O)/C=C/c1ccc(Cl)cc1		47	13	
COC(=O)[C@H](C)NC(=O)/C=C/c1ccccc1		25	13	
CCOC(=O)[C@H](CC(C)C)NC(=O)/C=C/c1ccc(C(C)C)cc1		43	44	
CCCOC(=O)[C@H](CC(C)C)NC(=O)/C=C/c1ccccc1		45	31	
CCOC(=O)[C@@H](NC(=O)/C=C/c1ccc(Cl)cc1Cl)C(C)C	19	47	68	
CCOC(=O)[C@@H](NC(=O)/C=C/c1ccccc1)[C@@H](C)CC		30	49	
CC(C)C[C@H](NC(=O)/C=C/c1ccc(Cl)cc1Cl)C(=O)OC(C)C		39	42	
CCCOC(=O)[C@H](C)NC(=O)/C=C/c1ccc(Cl)cc1		38	21	

Compound	inhibition of growth at 10 ppm [1] [%]	inhibition of growth at 100 ppm [2] [%]	inhibition of growth at 100 ppm [3] [%]	inhibition of growth at 10 ppm [4] [%]
COC(=O)[C@H](Cc1ccccc1)NC(=O)/C=C/c1ccc(Cl)cc1Cl		46	38	
COC(=O)[C@H](CC(C)C)NC(=O)/C=C/c1ccc(Cl)cc1Cl	12	42	55	
CCOC(=O)[C@@H](NC(=O)/C=C/c1ccc(C(C)C)cc1)[C@@H](C)CC	23	45	57	
CCCOC(=O)[C@H](CC(C)C)NC(=O)/C=C/c1ccc(Cl)cc1		56	38	25
CCOC(=O)[C@H](Cc1ccccc1)NC(=O)/C=C/c1ccc(C(C)C)cc1		18	20	
CC(C)OC(=O)CNC(=O)/C=C/c1ccccc1 [ISOPROPYL 2-CINNAMAMIDOACETATE]		61	42	15
CCOC(=O)[C@H](C)NC(=O)/C=C/c1ccc(Cl)cc1		47	27	
COC(=O)[C@H](C)NC(=O)/C=C/c1ccc(Cl)cc1		44	26	
CCOC(=O)[C@H](Cc1ccccc1)NC(=O)/C=C/c1ccc(Cl)cc1		22	15	
COC(=O)[C@H](C)NC(=O)/C=C/c1ccc(Cl)cc1Cl		49	55	
CCOC(=O)[C@@H](NC(=O)/C=C/c1ccc(Cl)cc1)C(C)C		47	54	
CCCOC(=O)[C@H](CC(C)C)NC(=O)/C=C/c1ccc(C(C)C)cc1		46	43	
COC(=O)[C@H](CC(C)C)NC(=O)/C=C/c1ccc(Cl)cc1		50	32	
COC(=O)[C@@H](NC(=O)/C=C/c1ccccc1)C(C)C		29	33	
CC(C)C[C@H](NC(=O)/C=C/c1ccccc1)C(=O)OC(C)C		41	34	
CCOC(=O)[C@H](CC(C)C)NC(=O)/C=C/c1ccc(Cl)cc1		53	22	16
COC(=O)[C@H](Cc1ccccc1)NC(=O)/C=C/c1ccccc1		49	37	
CCOC(=O)[C@H](Cc1ccccc1)NC(=O)/C=C/c1ccccc1		62	26	27
CCCOC(=O)[C@H](C)NC(=O)/C=C/c1ccccc1		48	33	
CCOC(=O)[C@@H](NC(=O)/C=C/c1ccc(Cl)cc1Cl)[C@@H](C)CC	20	47	52	
CC[C@H](C)[C@H](NC(=O)/C=C/c1ccc(Cl)cc1Cl)C(=O)OC	18	48	59	
CCCOC(=O)CNC(=O)/C=C/c1ccc(Cl)cc1Cl		28	40	
CCOC(=O)[C@@H](NC(=O)/C=C/c1ccccc1)C(C)C		41	41	

From ChEMBL document CHEMBL3046900, “Synthesis and Fungitoxic Activity of N-Cinnamoyl--Amino Acid Esters” (2000)
